Laboratory results as given in patent US12286401B2, “Small molecules that sensitize HIV-1 infected cells to antibody dependent cellular cytotoxicity” (THE TRUSTEES OF THE UNIVERSITY OF PENNSYLVANIA, priority 2018, dated 2025).

Legend:
[1] = system: CH58TF infected primary CD4+ T-cells; assay: Recognition of HIV-1 infected cells by 17b (flow cytometry cell-surface staining); assay type: cell-based; conditions: Human immunodeficiency virus 1, T-cell, read-out: Fold Over DMSO (17b, n = 1)
Method: Cell-surface staining of primary CD4+ T cells from healthy HIV uninfected individuals or CEM-NKr cells is performed, as described in Prevost, “Influence of the Envelope gp120 Phe 43 Cavity on HIV-1 Sensitivity to Antibody-Dependent Cell-Mediated Cytotoxicity Responses,” 2017, J. Virol 91; Richard, “CD4 mimetics sensitize HIV-1-infected cells to ADCC,” 2015, Proc. Natl. Acad. Sci. USA, 112:E2687-2694; Richard, “Small CD4 Mimetics Prevent HIV-1 Uninfected Bystander CD4+ T Cell Killing Mediated by Antibody-dependent Cell-mediated Cytotoxicity,” 2016, EBioMedicine 3:122-134; Veillette, “The HIV-1 gp120 CD4-Bound Conformation Is Preferentially Targeted by Antibody-Dependent Cellular Cytotoxicity-Mediating Antibodies in Sera from HIV-1-Infected Individuals,” 2015, J. Virol., 89:545-551; Veillette, “Interaction with cellular CD4 exposes HIV-1 envelope epitopes targeted by antibody-dependent cell-mediated cytotoxicity,” 2014, J. Virol., 88:2633-2644; Richard, “Uninfected Bystander Cells Impact the Measurement of HIV-Specific Antibody-Dependent Cellular Cytotoxicity Responses,” 2018, MBio. 9(2): e00358-18; Richard, “BST-2 Expression Modulates Small CD4-Mimetic Sensitization of HIV-1-Infected Cells to Antibody-Dependent Cellular Cytotoxicity,” 2017, J. Virol. 91(11):e00219-17. Binding of HIV-1 infected cells by HIV+ sera (1:1000 dilution) or anti-Env Abs (such as 17b) is performed […] in vitro infection at 37° C. in presence of different concentrations of the MCG analogs or with equivalent volume of vehicle (DMSO). Cells infected with HIV-1 primary isolates are stained intracellularly for HIV-1 p24 using the Cytofix/Cytoperm Fixation/Permeabilization Kit (BD Biosciences, Mississauga, ON, Canada) and then fluorescent anti-p24 mAb (PE-anti-p24, clone KC57; Beckman Coulter/Immunotech, Hialeah, FL) (1:100 final concentration). The percentage of infected cells (p24^+ or GFP+ cells) is determined by gating the living cell population based on the viability dye staining. Samples are analyzed on an LSRII cytometer (BD Biosciences, Mississauga, ON, Canada) and data analysis is performed using FlowJo vX0.7 (Tree Star, Ashland, OR, USA).
(§1) Briefly, Primary CD4 T cells isolated from PBMC were infected with HIV-1CH58TF for 48 hours. For cell surface staining, 5 μg/ml 17b (FIG. 15A) or 1:1000 diluted HIV+ plasma (n=15) (FIG. 15B) were used in the presence of the different MCG analogs (50 μM), (+)-BNM-III-170 or with an equivalent volume of vehicle (DMSO). An Alexa Fluor 647-conjugated anti-human IgG secondary Ab was then used for fluorescent labeling. For ADCC (FIG. 15C), infected cells were used as target cells in a FACS-based ADCC assay that measures the killing of infected (p24+ cells). See, Madani, 2016, J. Virol., 90:5031-5046. The assay determines susceptibility to ADCC mediated by a 1/1,000 dilution of plasma from 15 HIV-1-infected individuals in the presence of the different MCG analogs (50 μM), (+)-BNM-III-170 (50 μM) or with an equivalent volume of vehicle (DMSO). Correlation between cell-surface staining with HIV+ plasma and ADCC was calculated using the Spearman rank correlation (FIG. 15D).

[2] = system: primary CD4+ T cells infected with CH58 TF; assay: FACS-based ADCC assay with patient sera/plasma; assay type: cell-based, HIV-1; conditions: Human immunodeficiency virus 1, CD4+ T, read-out: Fold over DMSO (% ADCC with ps, n = 3)
Method: Measurement of antibody or serum-mediated ADCC is performed with a FACS-based assay as described in Prevost, “Influence of the Envelope gp120 Phe 43 Cavity on HIV-1 Sensitivity to Antibody-Dependent Cell-Mediated Cytotoxicity Responses,” 2017, J. Virol 91; Richard, “CD4 mimetics sensitize HIV-1-infected cells to ADCC,” 2015, Proc. Natl. Acad. Sci. USA, 112:E2687-2694; Richard, “Small CD4 Mimetics Prevent HIV-1 Uninfected Bystander CD4+ T Cell Killing Mediated by Antibody-dependent Cell-mediated Cytotoxicity,” 2016, EBioMedicine 3:122-134; Veillette, “The HIV-1 gp120 CD4-Bound Conformation Is Preferentially Targeted by Antibody-Dependent Cellular Cytotoxicity-Mediating Antibodies in Sera from HIV-1-Infected Individuals,” 2015, J. Virol., 89:545-551; Veillette, “Interaction with cellular CD4 exposes HIV-1 envelope epitopes targeted by antibody-dependent cell-mediated cytotoxicity,” 2014, J. Virol., 88:2633-2644; Richard, “Uninfected Bystander Cells Impact the Measurement of HIV-Specific Antibody-Dependent Cellular Cytotoxicity Responses,” 2018, MBio. 9(2): e00358-18; Richard, “BST-2 Expression Modulates Small CD4-Mimetic Sensitization of HIV-1-Infected Cells to Antibody-Dependent Cellular Cytotoxicity,” 2017, J. Virol. 91(11):e00219-17. This assay specifically measures ADCC activity against productively infected cells and is not affected by the confounding effect of uninfected bystander cells. See, Richard, “Uninfected Bystander Cells Impact the Measurement of HIV-Specific Antibody-Dependent Cellular Cytotoxicity Responses,” 2018, MBio., 9(2): e00358-18.
Briefly, primary CD4+ T cells isolated from healthy HIV-1-negative individuals or CEM-NKr cells are infected with HIV viruses. Forty-eight hours post-infection, cells are incubated with autologous PBMC (effector:target cell ratio of 10:1) in the presence of 1:1000 HIV+ sera dilution or anti-Env Abs (5 μg/mL) alone or in combination with increasing concentration of MCG analogs. Infected cells are identified by intracellular staining for HIV-1 p24 or GFP expression (for GFP expressing infectious molecular clones) and the percentage of cytotoxicity is calculated the following formula as described.
For cells infected with HIV-1 primary isolates, infected cells are identified by intracellular staining for HIV-1 p24. In that context, the percentage of cytotoxicity is calculated with the following formula by gating infected lived target cells: […]
The ADCC susceptibility of primary CD4+ T cells infected with CH58 TF mediated by HIV+ plasma+/−MCG analogs also was evaluated using a FACS-based assay as previously reported. See, Ding, 2016, J Virol., 90:2127-2134; and Richard, 2018, MBio 9.
as §1

Solubility in PBS = assay type: physicochemical; conditions: Yes/NO
[3] = system: CH58TF infected primary CD4+ T-cells; assay: HIV+ patient sera/plasma recognition of CH58TF infected primary CD4+ T-cells (flow cytometry cell-surface staining); assay type: cell-based, HIV-1; conditions: Human immunodeficiency virus 1, T-cell, read-out: Fold Over DMSO (patient sera, n = 3)
Method in brief: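 Primary CD4+ T cells from PBMC infected with HIV-1 CH58TF for 48 h, then surface-stained with 1:1000 HIV+ plasma or 5 μg/ml 17b plus 50 μM MCG analogs or DMSO; Alexa Fluor 647 anti-human IgG detection by flow cytometry, infected cells gated p24+. Values are fold change over DMSO.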

[4] = system: HIV-1JR-FL EnvΔCT expressed at the surface of HOS cells; assay: Cell-based ELISA (CBE), 17b readout; conditions: MCG analogs 50 μM; BNM-III-170 5 μM; 2G12 and DMSO normalized
Method in brief: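 HOS cells transiently expressing cytoplasmic-tail-truncated HIV-1JR-FL Env were treated 30 min at room temperature with compounds (50 μM), sCD4 ([…]) or DMSO, then 1 h with 17b antibody. Bound 17b was detected by HRP-conjugated anti-Fc chemiluminescence; values are fold over BNM-III-170 (5 μM), normalized to 2G12 and DMSO.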

Compound	fold induction at 50 µM [1]	fold induction at 50 µM [2]	Solubility (in PBS) (Solubility in PBS)	fold induction at 50 µM [3]	Fold over BNM-III-170 - 17b binding (±0.05) [4] [fold]
COc1ccccc1NC(=O)[C@H]1CCCN(S(C)(=O)=O)C1 [(S)-MCG-III-027-C05]	1.5	0.46	Yes	1.76	
CCS(=O)(=O)N1CCC[C@H](C(=O)Nc2ccc(F)c(F)c2)C1 [(S)-MCG-III-085-C04]	3.95		Yes	1.68	0.26
CCS(=O)(=O)N1CCC[C@H](C(=O)Nc2ccc(Cl)c(Br)c2)C1 [(S)-MCG-III-085-C05]	1.77		Yes	1.04	0.26
CS(=O)(=O)N1CCC[C@H](C(=O)Oc2ccc(Cl)c(F)c2)C1 [(S)-MCG-III-213-A01]	1.08		Yes	1.08	0.07
CCS(=O)(=O)N1CCC[C@H](C(=O)Oc2ccc(Cl)c(F)c2)C1 [(S)-MCG-III-213-A02]	1.07		Yes	1.03	0.07
Cn1cnc(S(=O)(=O)N2CCC[C@H](C(=O)Oc3ccc(Cl)c(F)c3)C2)c1 [(S)-MCG-III-213-A04]	1.06		Yes	1.07	0.10
CS(=O)(=O)N1CCOC(C(=O)Nc2ccc(Cl)c(F)c2)C1 (centres unmarked) [MCG-III-211-A01]	2.63		Yes	1.47	0.28
CCS(=O)(=O)N1CCOC(C(=O)Nc2ccc(Cl)c(F)c2)C1 (centres unmarked) [MCG-III-211-A02]	3.64		Yes	1.81	0.33
Cn1cnc(S(=O)(=O)N2CCOC(C(=O)Nc3ccc(Cl)c(F)c3)C2)c1 (centres unmarked) [MCG-III-211-A04]	3.61		Yes	1.63	0.35
CC(C)(C)OC(=O)N1CCN(S(C)(=O)=O)CC1C(=O)Nc1ccc(Cl)c(F)c1 (centres unmarked) [MCG-III-212-A01]	0.968		Yes	0.982	0.06
CCS(=O)(=O)N1CCNC(C(=O)Nc2ccc(Cl)c(F)c2)C1 (centres unmarked) [MCG-III-212-A02]	3.95		Yes	1.85	0.36
Cn1cnc(S(=O)(=O)N2CCN(C(=O)OC(C)(C)C)C(C(=O)Nc3ccc(Cl)c(F)c3)C2)c1 (centres unmarked) [MCG-III-212-A04]	1.04		Yes	0.924	0.06
CS(=O)(=O)N1CC(C(=O)Nc2ccc(Cl)c(F)c2)Cc2ccccc21 (centres unmarked) [MCG-III-214-A01]	1.39		Yes	1.29	0.24
O=C(Nc1ccc(Cl)c(F)c1)C1CNCCN1 (centres unmarked) [MCG-III-216-A01]	1.73		Yes	0.999	0.21
CS(=O)(=O)N1CCNC(C(=O)Nc2ccc(Cl)c(F)c2)C1 (centres unmarked) [MCG-III-216-A02]	1.3		Yes	1.03	0.10
O=C(Nc1ccc(Cl)c(F)c1)C1CN(S(=O)(=O)c2ccccc2)CCN1 (centres unmarked) [MCG-III-216-A03]	1.47		Yes	1.05	0.11
Cn1cnc(S(=O)(=O)N2CCNC(C(=O)Nc3ccc(Cl)c(F)c3)C2)c1 (centres unmarked) [MCG-III-216-A04]	1.24		Yes	0.845	0.10
